From the METLIN SMRT retention time set (Domingo-Almenara et al. 2019)

Assay: gradient 5% acetonitrile 3 min, to 50% in 2 min, to 85% in 15 min, held 3 min, 100 µL/min
Conditions: column: Zorbax Extend-C18 2.1 x 50 mm; eluents: water / acetonitrile, 0.1% formic acid
Outline: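 Mixtures of ~100 pure standards were chromatographed on a Zorbax Extend-C18 column (2.1 × 50 mm, 1.8 μm) at 100 μL/min using water and acetonitrile, each with 0.1% formic acid. Detection used a quadrupole time-of-flight mass spectrometer in positive and negative ionization mode, and data collection spanned 3 months. Retention time was obtained from adduct peaks picked computationally and each checked manually.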

SMILES | RP-LC retention time [s]
O=c1cccnn1CCCNS(=O)(=O)c1ccc2c(c1)OCCO2 | 645
CCc1cccc(C)c1Nc1c(-c2ccc(C(=O)OC)cc2)nc2cnccn12 | 982
COc1ccc(NS(=O)(=O)c2cc(-c3[nH]ncc3C(=O)N(C)C)oc2C)c(C)c1 | 681
O=C(c1cccc(OCC2CCCN(C(=O)C3CCCO3)C2)c1)N1CCCCC1 (stereo not drawn) | 750
Cc1nc([C@H]2CCN(Cc3ccc4[nH]ccc4c3)C[C@H]2N(C)C)n[nH]1 | 520
CCc1c(C)nc2ncnn2c1N1CCCC1 | 733
Cc1ccc(C(C)C)cc1S(=O)(=O)Nc1cccc(-c2cn3ccccc3n2)c1 | 739
COc1cc(-c2noc(Cn3nc(-c4ccc(Br)cc4)ccc3=O)n2)cc(OC)c1OC | 1020
Cn1nccc1-c1cccc(-c2noc(/C=C/c3cccs3)n2)c1 | 1160
CCOc1ccc(-n2c(=O)c3sccc3n(Cc3nc(-c4ccc(C)c(C)c4)no3)c2=O)cc1 | 1130
Cc1ccc(-c2cn3cccnc3n2)cc1NC(=O)c1cccc(Br)c1 | 723
CCc1ccc(-c2cc(C(=O)N3CCN(c4cc(=O)n(C(C)C)c(=O)n4C(C)C)CC3)[nH]n2)cc1 | 946
COc1ccc(NC(=O)C2CCN(c3nc4ccc(-c5cncnc5)nc4s3)CC2)cc1 | 860
N#Cc1cccc(-c2cn3c(n2)N(C(=O)c2cnccn2)CCC3)c1 | 687
O=C(CN1CCCCC1c1nc(-c2cccc(F)c2)no1)Nc1ccccc1F (stereo not drawn) | 1230
CCOc1ccc(-c2csc(NC(=O)CCc3ccccc3)n2)cc1 | 1120
CCc1ccccc1NC(=O)Nc1cccc(-c2ccc(N3CCOCC3)nn2)c1 | 717
Cc1ccc(-c2noc(-c3cccc(S(=O)(=O)N(C)Cc4ccco4)c3)n2)cc1 | 1260
O=C(C1CCCN(c2cnc3nccnc3c2)C1)N1CCN(C2CCCCC2)CC1 (stereo not drawn) | 567
Cc1cccc2nnc(N3CCN(C(=O)c4ccsc4)CC3)n12 | 614
CCc1cc(-c2csc(S(=O)(=O)NCc3ccc(OC(C)C)cc3)c2)on1 | 1070
O=C(Nc1ccc(N2CCN(C3CCCCC3)C2=O)nc1)c1ccc2c(c1)OCO2 | 808

SMILES | RP-LC retention time [s]
CCOc1cccc(-c2noc(Cc3nnc(-c4ccc(C)c(F)c4)o3)n2)c1 | 1160
CC(C)NC(=O)C1CCN(Cc2cc3ccccc3n2Cc2ccccc2)CC1 | 710
CCOc1ccc(C(=O)N2CCCCC2c2nncn2C)cc1OCC (stereo not drawn) | 646
Cc1ccccc1Nc1c(-c2cccc(Cl)c2)nc2ncccn12 | 901
COCC(=O)NC1CCC12CCN(C(=O)c1ccoc1)CC2 (stereo not drawn) | 643
CCC1CN2C=NC(N3CCN(C(=O)Nc4ccccc4Cl)CC3)=CC2=N1 (stereo not drawn) | 814
CC(=O)Nc1ccc(CCc2nc3ccc(C(=O)NC4CCCCCC4)cc3[nH]2)cc1 | 650
CC(C)(C)c1csc(-c2csc(S(=O)(=O)Nc3ccc(F)cc3)c2)n1 | 1220
COc1ccc(N2CCN(C(=O)Cc3csc4nc(-c5ccc(OC)c(OC)c5)cn34)CC2)cc1 | 686
COC(=O)CNC(=O)C1COc2ccc(NC(=O)C(C)C)cc2C1 (stereo not drawn) | 658
O=C(Nc1cccn2c(C3CCC3)nnc12)c1ccccn1 | 781
CCOC(=O)C1CCN(c2c(S(=O)(=O)c3ccccc3)cnc3ccc(C)cc23)CC1 | 964
Cc1cccc(-c2nc(N3CC4(C)CC3CC(C)(C)C4)c3ccccc3n2)c1 (stereo not drawn) | 1060
COc1ccc(-c2nnc(-c3cc(S(=O)(=O)NCC(=O)O)ccc3Cl)o2)cc1 | 772
CC(=O)Nc1nc(-c2ccc3c(c2)NC(=O)C(C)O3)cs1 (stereo not drawn) | 685
CCc1noc(NC(C)=O)c1-c1ccc(C)c(S(=O)(=O)N2CCc3ccccc3C2)c1 | 956
Cc1ccc(CNS(=O)(=O)c2c(-c3nnc(C)o3)c(C)n(C)c2C)o1 | 780
CCCCC(=O)Nc1ccc2nc(N3CCN(CCC#N)CC3)cc(C(=O)O)c2c1 | 570
CCOCCOC(=O)C1=C(C)NC2=C(C(=O)C(C(=O)OC)C(C)C2)C1c1ccccc1F (stereo not drawn) | 862
Cc1cccc(S(=O)(=O)N2CCN(c3cc(C)nc(NC4CCCCC4)n3)CC2)c1 | 860
CN1CCN(c2ncc3c(=O)n(CC4CCCO4)ccc3n2)CC1 (stereo not drawn) | 567
CN1C(=O)C(CC(=O)N2CCCC2)Sc2ncccc21 (stereo not drawn) | 626

SMILES | RP-LC retention time [s]
CC1=C(C(=O)N2CCOCC2)C(c2ccc(Br)cc2)C2=C(CC(C)(C)CC2=O)N1 (stereo not drawn) | 723
Cc1ccc(NS(=O)(=O)c2cc(-c3[nH]ncc3C(=O)N3CCOCC3)oc2C)cc1C | 713
O=C1COc2ccc(C(=O)N3CCCCC3)cc2N1 | 633
COc1ccccc1CCC(=O)Nc1ccc2c(c1)Sc1ncccc1C(=O)N2C | 822
Cc1cc(C)cc(NC(=O)Cn2nc3c(N(C)C4CCCCC4)nccn3c2=O)c1 | 846
CCOC(=O)c1c(-c2ccc(OC)c(OC)c2)csc1NC(=O)CN1CCCC1 | 566
O=C(CCc1conc1-c1ccccc1)N1CCC(N2CCCCC2)CC1 | 616
COc1cc(CN2CC(c3nc(-c4ccsc4)nn3C)C2)ccc1OC(C)C | 684
O=C1C(Cl)=C(NCCc2ccccc2)C(=O)c2ccccc21 | 1190
CCn1cc(C)c(C(=O)O)c1CC(=O)NCCc1ccc(C)cc1 | 842
CC(C)NC(=O)c1cccc(Nc2c(-c3ccc(Cl)cc3)nc3cnccn23)c1 | 687
O=S(=O)(c1ccccc1Br)N1CCCC1c1nc(-c2ccc(F)cc2)no1 (stereo not drawn) | 1110
CCc1noc(NC(C)=O)c1-c1ccc(C)c(S(=O)(=O)Nc2cc(C)ccc2C)c1 | 900
O=C(Nc1nc(-c2ccccc2)cs1)C1Cc2ccccc2CN1S(=O)(=O)c1cccs1 (stereo not drawn) | 1160
CC1(C)C(=O)N(CC(=O)N2CCN(c3ccccn3)CC2)c2ccccc21 | 600
Cn1cnc(S(=O)(=O)N2CCCC(c3nnnn3-c3ccccc3)C2)c1 (stereo not drawn) | 690
CC1CCN(c2nc3c(c(=O)n(Cc4ccccc4Cl)c(=O)n3C)n2C)CC1 | 1170
O=C(C1CCC1)N1[C@H]2CC[C@@H]1c1cnc(-c3ccccc3)nc1C2 | 876
CNc1cc(C)nc2c(-c3ccc(Cl)cc3)cnn12 | 731
Cc1nnc2cc(N3CCN(S(=O)(=O)c4ccc(CC(C)C)cc4)CC3)cnn12 | 695
C[C@H]1CN(C(=O)c2ccc(F)cc2F)C[C@@H]1c1nc(-c2ccccc2)no1 | 1040
O=C(c1ccc(OCC2CCCN2C(=O)c2ccccc2F)cc1)N1CCCC1 (stereo not drawn) | 813

SMILES | RP-LC retention time [s]
CC(C)OC(=O)c1ncoc1-c1ccccc1C(=O)N1CCN(C2CCCCC2)CC1 | 638
Cc1nn(-c2cc(N3CCCCC3)ncn2)c(C)c1CCC(=O)NCc1ccco1 | 811
COc1ccc(C2(C(=O)N3CCCC(CO)CCNC(=O)CC3)CC2)cc1 (stereo not drawn) | 622
CC1(C(=O)NCc2ccc(F)cc2)Cn2cnc(C(=O)NCc3ccc(F)cc3)c2C(=O)N1C1CC1 (stereo not drawn) | 777
Cn1nc(-c2nc(Cc3ccccc3)no2)c2c1CCN(C(=O)C1CCOC1)C2 (stereo not drawn) | 777
CN(C)S(=O)(=O)N(CC(=O)Nc1ccccc1C(F)(F)F)c1ccccc1 | 972
COc1cccc(OC)c1OCCNCC1CSc2ccccc2O1 (stereo not drawn) | 815
O=C(CCn1cnc2cc(-c3noc(-c4ccc(F)c(F)c4)n3)ccc21)N1CCOCC1 | 740
Cc1nn(-c2ccccc2)c(C)c1S(=O)(=O)N1CCC(C(=O)Nc2ccc(F)cc2Cl)CC1 | 1000
CN(CC(=O)Nc1ccc2c(c1)OCO2)c1nc2c(F)cccc2s1 | 828
Cc1ccc2cc(CCC(=O)N3CCCN(c4ncccn4)CC3)c(=O)[nH]c2c1 | 676
Cc1ccc(-c2[nH]ncc2CN2CCn3c(nn(C)c3=O)C2)cc1C | 638
CCc1cc(C2CCCN2C(=O)Nc2ccc(OC)cc2OC)on1 (stereo not drawn) | 829
CCn1c(SC)nnc1-c1nn(C)c2c1CN(C(=O)c1cccn1C)CC2 | 684
CCOC(=O)c1c(C)nn(Cc2cccc(Cl)c2)c1N | 884
O=C(c1ccc(Oc2ccccc2)cc1)N1CC(c2nc3ccccc3[nH]2)C1 | 623
Cc1nc2c(sc3nc(-c4ccccc4)ccc32)c(=O)n1CC(=O)Nc1ccc2c(c1)OCO2 | 985
O=C(NCC1CCCCC1)C1CCN(C(=O)c2cc3ccsc3n2Cc2ccc(Cl)cc2)CC1 | 1170
CCn1cc(C(=O)N2CCC(c3nnc(-c4ccco4)o3)CC2)c(=O)c2ccc(C)nc21 | 654
CCn1ccc(C(=O)N2CC(N(C3CCOCC3)S(C)(=O)=O)C2)n1 | 625
O=C(CCC(=O)OCc1ccc(Br)cc1)Nc1nc(-c2ccccc2)cs1 | 1130
CCOc1ccccc1NC(=O)CN1CCN(Cc2ccc(C)cc2)C(=O)C1=O | 848
